Measurements: paper PMC4014072 (Molecular and cellular biochemistry, 2010)

Biological target: LdLip3::HA (LdLip3 secretory lipase) (Leishmania donovani, UniProt D7P7V3)
Test: fluorogenic 4MU release assay, anti-HA affinity-purified enzyme
Assay type: biochemical
Conditions: 150 µM substrate, McIlvaine buffer pH 6.0, 37 and 42 °C, 30 min

CCCCCCCCCCCCCCCCCC(=O)Oc1ccc2c(C)cc(=O)oc2c1 [4MU-stearate]
fluorogenic 4MU release assay, anti-HA affinity-purified enzyme: LdLip3∷HA chimeric protein and pKSNEO controls were subsequently analyzed for lipase activity using 4MU-stearate
